Consider three molecules from ChEMBL document CHEMBL1139147, “Evaluation of fluorescently labeled xylopyranosides as probes for proteoglycan biosynthesis” (Bioorg Med Chem Lett, 2007).

The structures appear in SMILES notation. Activity calls are given as the source filed them. The rule behind the calls is not given here.

Data set [1] in a line: Partition coefficient, log P assessed as retention time. The format is physicochemical. Conditions: octanol/water.
The test system of data set [2] is T-24. Description: Suppression of glycosaminoglycan production in T24 cells at 0.1 mM. Conditions: Homo sapiens. Format: functional, cell-based.
The subject of data set [3] is T-24. Description: Suppression of proteoglycan production in T24 cells at 0.1 mM. Format: functional, cell-based. Conditions: Homo sapiens.

As to `Oc1ccc2cc(O[C@@H]3OC[C@@H](O)[C@H](O)[C@H]3O)ccc2c1`, the Activity in data set [1] was 17.73 min. Take `CN(C)c1cccc2c(S(=O)(=O)Oc3ccc4cc(O[C@@H]5OC[C@@H](O)[C@H](O)[C@H]5O)ccc4c3)cccc12`: the Activity in data set [1] is reported as 38.48 min. The outcome in data set [2] and in data set [3] was Active. As to `Oc1cc2ccc(O[C@@H]3OC[C@@H](O)[C@H](O)[C@H]3O)cc2cc1COCc1c2ccccc2cc2ccccc12`, the Activity in data set [1] worked out at 43.4 min.
